Test results as given in patent publication US20230406812A1, “NOVEL AMINOAROMATIC COMPOUND OR PHARMACEUTICALLY ACCEPTABLE SALT THEREOF, AND PHARMACEUTICAL COMPOSITION FOR PREVENTING OR TREATING NEURODEGENERATIVE DISEASES COMPRISING SAME AS ACTIVE INGREDIENT” (INSTITUTE FOR BASIC SCIENCE, priority 2020, published 2023).

Assays:
[1] = target: hemoglobin (Hb) (Homo sapiens, UniProt P68871+P69905); experiment: Hydrogen peroxide scavenging ability with hemoglobin (Amplex Red H2O2 assay); type: biochemical; conditions: 10 μM H2O2, 80 μg/ml hemoglobin, 37° C. about 30 minutes
hemoglobin (Hb), sequence (P69905 2-142 limits assumed): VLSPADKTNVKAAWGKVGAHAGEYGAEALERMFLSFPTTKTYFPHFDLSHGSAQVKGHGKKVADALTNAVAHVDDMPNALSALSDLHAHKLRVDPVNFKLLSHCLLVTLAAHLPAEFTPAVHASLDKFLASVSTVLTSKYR
hemoglobin (Hb), sequence (P68871 2-147 limits assumed): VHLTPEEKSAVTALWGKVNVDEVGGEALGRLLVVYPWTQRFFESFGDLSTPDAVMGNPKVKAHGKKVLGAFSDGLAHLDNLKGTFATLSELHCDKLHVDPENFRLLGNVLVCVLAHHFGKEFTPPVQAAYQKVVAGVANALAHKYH
Procedure: Amplex Red is a means which turns into a fluorescent substance called resorufin when horse radish peroxidase (HRP) and H2O2 exist together and allows measurement of changes in H2O2, that is, H2O2 assay. […] The experiment was performed by adding hemoglobin instead of HRP to the H2O2 assay by Amplex Red (FIG. 1). The final concentration of each substance was 10 μM of H2O2 and 80 μg/ml of hemoglobin, and the aminoaromatic compound of the present invention was treated by concentration. After the reaction at 37° C. for about 30 minutes as such, fluorescence (excitation: 540 nm, emission: 580 nm) was measured by a microplate reader. At this time, it can be said that fluorescence is proportional to the amount of H2O2. Normalization was performed for each concentration based on a fluorescence value without a drug, and a value at which the fluorescence value was 50%, that is, a half maximal effective concentration (EC50) was determined by a program through statistical processing. The results are shown in the following Table 2, and AAD-2004 was used as a control group.

[2] = Blood brain barrier (BBB) permeability analysis (PAMPA); type: in vitro ADME
Procedure: Based on J Med Chem. 2001 Mar. 15; 44 (6):923-30., an artificial blood brain barrier (BBB) was produced by a parallel artificial membrane permeability assay (PAMPA), and the permeability of the drug was assessed.

[3] = test system: APP/PS1 mouse; experiment: Passive avoidance test (PAT) I; type: in vivo; conditions: 30 mg/kg/day IP for 16 days
Procedure: A passive avoidance test is an experiment to check the memory of animals, in which a weak electric stimulation was given in a dark room and it was assessed whether the animal remembered the electrical stimulation.
Since mice preferred a dark room, they have a tendency to move quickly to a dark room when they are in a bright room. […] A time to move from a bright room to a dark room (latency to dark room, sec) was measured, thereby measuring memory of a combination of the electrical stimulation and the dark room. An APP/PS1 mouse which is used as an Alzheimer's animal model was used to perform the passive avoidance test (FIG. 4). A wild type (WT) mouse was used as a control group.
On the first day of PAT, as an acquisition session, the mouse was allowed to stay in a bright room, and after a certain time, a dark room was opened and a time for the mouse to enter the dark room was measured. When the mouse entered the dark room, an electrical shock (0.5 mA, 2 sec) was given by a foothold. On the second day, as a retrieval session, the mouse was placed in a bright room, and a time for the mouse to enter a dark room was measured. At this time, the door of the dark room was opened first.
The APP/PS1 dementia mouse was intraperitoneally injected with the aminoaromatic compound of the present invention (KDS12008 (Example 1), KDS12017 (Example 16), or KDS12025 (Example 21)) (KDS12008 (Example 1) 30 mg/kg/day (30 mpk); KDS12017 (Example 16) 30 mg/kg/day (30 mpk); KDS12025 (Example 21) 3 mg/kg/day (3 mpk)) for 16 days (intraperitoneal injection, IP).

[4] = test system: WT mouse (C57BL/6 mouse); experiment: Single toxicity assessment (lethal dose 50, LD50); type: in vivo; conditions: for animals died: C57BL/6, mouse, 300 mg/kg; for animals died / toxicity (death of animals): in vivo, ip; for toxicity (death of animals): mouse, 1000 mg/kg; for lethal toxicity: single dose 100 mg/kg IP, C57BL/6 mouse
Procedure: The aminoaromatic compound of the present invention, KDS12008 (Example 1), KDS12017 (Example 16), or KDS12025 (Example 21) was intraperitoneally injected at a single dose of 100, 300, and 1000 mg/kg, respectively, into a WT mouse at about 8 weeks of age (C57BL/6 mouse), and it was assessed whether the animal was dead.

[5] = test system: cultured astrocytes; experiment: Cell viability (QuantiMax reagent); type: cell-based, C57BL/6 mice
Procedure: (§1) Primary cortical astrocytes were prepared from C57BL/6 mice from the day of birth to day 3 since birth. The cerebral cortex was dissected without adherent meninges, minced, and dissociated into a single cell suspension by trituration. The cells were grown in Dulbecco's modified Eagle's medium (DMEM) (Invitrogen) supplemented with 25 mM glucose, 10% heat-inactivated horse serum, 10% heat-inactivated fetal calf serum (FCS), 2 mM glutamine, and 1,000 U/ml of penicillin-streptomycin. Culture was maintained at 37° C. in a humidified 5% CO2 incubator. On day 3 of the culture, cells were vigorously washed by repeated pipetting, and the medium was exchanged to remove debris and other floating cell types.
In addition, in order to investigate cell viability, the experiment was performed using a QuantiMax reagent. The cell viability was confirmed by a luminescence degree of QuantiMax, and the results are shown in B of FIG. 3.

[6] = test system: primary cultured astrocytes; experiment: In vitro H2O2 decomposition in primary cultured astrocytes (H2DCFDA-AM); type: cell-based, C57BL/6 mice
Procedure: as §1
In order to verify that there was a H2O2 scavenging effect in a cell-level experiment, a cell-permeant 2′,7′-dichlorodihydrofluorescein diacetate (H2DCFDA-AM) drug which is a hydrogen peroxide probe in astrocytes was used to measure the amount of H2O2 in the cells with fluorescence (A and B of FIG. 2). […]
An experiment timeline for investigating the H2O2 decomposition effect by the aminoaromatic compound of the present invention, KDS12008 (Example 1) (10 μM) and sodium pyruvate (10 mM) for naturally occurring H2O2 in the cultured astrocytes is shown in A of FIG. 2. […] H2DCFDA-AM was a sample which reacted with H2O2 to produce green fluorescence, and was used at 10 μM for measurement. […]

[7] = test system: APP/PS1 mouse hippocampus astrocytes (GFAP); experiment: Immunohistochemistry (IHC) I of brain tissue, GFAP; type: in vivo; conditions: 30 mg/kg/day IP for 16 days
Procedure: The brain of the Alzheimer's animal model of Experimental Example 3 was fixed with formaldehyde, and sliced into a small thickness. The amount of cells or specific protein in the sliced brain was measured with an image by histochemical staining. In the present experimental example, an antibody labeling an astrocyte was used to measure a change in astrocytes related to dementia. The results are illustrated in FIG. 5. That is, in the present experimental example, the hippocampus of the brain was histologically stained and a change in astrocytes around dementia substance amyloid beta was observed. Glial fibrillary acidic protein (GFAP) refers to astrocytes staining, 4′,6-diamidino-2-phenylindole (DAPI) marked cell nuclei and amyloid beta substance.

SMILES | EC50 [1] | other results
O=C(O)c1cc(NCCc2ccc(C(F)(F)F)cc2)ccc1O [AAD-2004, reference compound] | 990 nM | Papp at 50 μM [2]: 3.56 ×10⁻⁶ cm/s
CN(C)c1ccc(NCCc2ccc(C(F)(F)F)cc2)cc1 [Example 1] | 540 nM | latency to dark room (impaired memory) [3]: significantly recovered; animals died [4]: about 50%; toxicity (death of animals) [4]: showed toxicity; lethal toxicity [4]: lethal toxicity was not shown; cell viability ([5]; 100 μM): no effect on cell viability; H2O2 decomposition effect on naturally occurring H2O2 ([6]; 10 μM, 2 days, cultured astrocytes): statistically significant decrease in H2O2; amount of H2O2 in cells (fluorescence intensity) ([6]; astrocytes treated at various concentrations): H2O2 was decreased with the concentration; GFAP (astrocytes) in hippocampus [7]: decreased GFAP
CN(C)c1ccc(NCCc2cccc(C(F)(F)F)c2)cc1 [Example 3] | 560 nM | 
CN(C)c1ccc(NCCc2ccccc2Cl)cc1 [Example 4] | 580 nM | 
CN(C)c1ccc(NCCc2cccc(Cl)c2)cc1 [Example 5] | 430 nM | 
CN(C)c1ccc(NCCc2ccc(Cl)cc2)cc1 [Example 6] | 270 nM | 
COc1ccc(CCNc2ccc(N(C)C)cc2)cc1 [Example 7] | 460 nM | 
CN(C)c1ccc(NCCc2ccc(F)cc2)cc1 [Example 8] | 410 nM | 
Nc1ccc(NCCc2ccc(C(F)(F)F)cc2)cc1 [Example 9] | 300 nM | 
CN(C)c1ccc(NCCCc2ccc(C(F)(F)F)cc2)cc1 [Example 10] |  | EC50 ([1]; (DMSO)): 300 nM
Nc1ccc(NCCCc2ccc(C(F)(F)F)cc2)cc1 [Example 11] |  | EC50 ([1]; (DMSO)): 540 nM
Nc1ccc(NCCc2ccccc2C(F)(F)F)cc1 [Example 12] | 830 nM | 
Nc1ccc(NCCc2cccc(C(F)(F)F)c2)cc1 [Example 13] | 720 nM | 
Nc1ccc(NCCc2cccc(F)c2)cc1 [Example 14] | 780 nM | 
Nc1ccc(NCCc2ccccc2Cl)cc1 [Example 15] | 590 nM | 
CNc1ccc(NCCc2ccc(C(F)(F)F)cc2)cc1 [Example 16] | 190 nM | latency to dark room (impaired memory) [3]: significantly recovered; animals died [4]: about 50%; toxicity (death of animals) [4]: showed toxicity; lethal toxicity [4]: lethal toxicity was not shown; GFAP (astrocytes) in hippocampus [7]: decreased GFAP
CNc1ccc(NCCCc2ccc(C(F)(F)F)cc2)cc1 [Example 17] |  | EC50 ([1]; (DMSO)): 300 nM
CNc1ccc(NCCc2ccccc2C(F)(F)F)cc1 [Example 18] | 210 nM | 
CNc1ccc(NCCc2cccc(C(F)(F)F)c2)cc1 [Example 19] | 190 nM | 
CNc1ccc(NCCc2cccc(Cl)c2)cc1 [Example 20] | 260 nM | 
CNc1ccc(NCCc2ccc(Cl)cc2)cc1 [Example 22] | 520 nM | 
CNc1ccc(NCCc2ccc(OC)cc2)cc1 [Example 23] | 620 nM | 
CNc1ccc(NCCc2cccc(OC)c2)cc1 [Example 24] | 610 nM | 
CC(=O)C(=O)[O-].[Na+] [sodium pyruvate, reference compound] |  | cell viability ([5]; 10 mM): lowered cell viability
